Structures are written as SMILES. Converted amounts (≈) assume the structure as drawn. Like-named read-outs stand apart in the source and are kept apart here.

Experiment in all cases: Anti-bacterial activity (MIC), agar dilution
Holding throughout (assay type): cell-based
A general note: Agar dilution tests growth on a series of plates holding different concentrations.

Assay [1] deals with Morganella morganii EP-14. To be noted: about 10^6 CFU/ml, 37° C. As for the experimental part:
(§1) MIC (μg/ml) were determined by an agar dilution method [Chemotherapy (Japan), 29, 76-79, 1981]. Overnight cultures of the bacterial strains in Mueller-Hinton broth were diluted to final concentration of about 10^6 CFU/ml, and 5 μl of each bacterial suspension was spotted onto Mueller-Hinton agar plates that contained twofold serial dilutions of antibiotics. MICs were measured after incubation for 18 hours at 37° C.

Another assay concerns Kleb. pneumoniae EK-6. The following applies: Kleb. pneumoniae EK-6, agar dilution, about 10^6 CFU/ml, 18 hours, 37° C. As for the experimental part: as §1
In a further assay the test system is Pseud. aeruginosa EP-01. To be noted: Pseud. aeruginosa EP-01, agar dilution, about 10^6 CFU/ml, 18 hours, 37° C. Here is the method: as §1
Another assay deals with Escher. coli NIHJ. To be noted: Escher. coli NIHJ, agar dilution, about 10^6 CFU/ml, 18 hours, 37° C. Here is the method:
as §1

The next assay relates to Ser. marcescens ES-75. The following applies: Ser. marcescens ES-75, agar dilution, about 10^6 CFU/ml, 18 hours, 37° C. As for the experimental part: as §1
The subject of another assay is Staph. aureus 209-P. The following applies: Staph. aureus 209-P, agar dilution, about 10^6 CFU/ml, 18 hours, 37° C. Here is the method:
as §1

[2] abbreviates: Pseudomonas aeruginosa, EP01, 18 h, read-out: MIC.
Setting [3] is: Escherichia coli, 18 h, read-out: MIC.
Where [4] appears, read: Morganella morganii, EP14, 18 h, read-out: MIC.
[5] abbreviates: Klebsiella pneumoniae, EK6, 18 h, read-out: MIC.
Where [6] appears, read: Serratia marcescens, ES75, 18 h, read-out: MIC.
The mark [7] stands for this setting: Staphylococcus aureus, 209P, 18 h, read-out: MIC.

As for `NC(=O)C1CC[N+](C/C=C/C2=C(C(=O)[O-])N3C(=O)[C@@H](NC(=O)/C(=N\OCF)c4nsc(N)n4)[C@H]3SC2)(CCO)CC1` (single isomer, unassigned) [Example 2-2, 7β-[2-(5-Amino-1,2,4-thiadiazol-3-yl)-(Z)-2-fluoromethoxyiminoacetamido]-3-[(E)-3-[1-(2-hydroxyethyl)-4-carbamoyl-1-piperidinio]-1-propen-1-yl]-3-cephem-4-carboxylate], the minimum inhibitory concentration (MIC) in assay [1] (18 hours) is at most 0.025 mg/L; against Kleb. pneumoniae EK-6, at most 0.025 mg/L; in the assay on Pseud. aeruginosa EP-01 (setting [2]) it was 1.56 mg/L (≈ 2.55 µM); in the assay on Escher. coli NIHJ (setting [3]), at most 0.025 mg/L; against Ser. marcescens ES-75, at most 0.025 mg/L; against Staph. aureus 209-P, 0.4 mg/L (≈ 0.653 µM).

Consider `C[N+]1(C/C=C/C2=C(C(=O)[O-])N3C(=O)[C@@H](NC(=O)/C(=N\OCF)c4nsc(N)n4)[C@H]3SC2)C[C@H](O)C[C@@H]1CO` (single isomer, unassigned) [Example 6-2, 7β-[2-(5-Amino-1,2,4-thiadiazol-3-yl)-(Z)-2-fluoromethoxyiminoacetamido]-3-[(E)-3-(4R-hydroxy-2R-hydroxymethyl-1-methyl-1-pyrrolidinio)-1-propen-1-yl]-3-cephem-4-carboxylate], for which the MIC in assay [1] (18 hours) is at most 0.025 mg/L; with Kleb. pneumoniae EK-6 it was at most 0.025 mg/L; against Pseud. aeruginosa EP-01, 0.8 mg/L (≈ 1.4 µM); with Escher. coli NIHJ it was at most 0.025 mg/L; in the assay with Ser. marcescens ES-75 it was at most 0.025 mg/L; against Staph. aureus 209-P, 0.1 mg/L (≈ 0.175 µM).

Consider `Nc1nc(/C(=N/OCF)C(=O)N[C@@H]2C(=O)N3C(C(=O)[O-])=C(/C=C/C[N+]4(CCO)C[C@H](O)C[C@H]4CO)CS[C@H]23)ns1` (single isomer, unassigned) [Example 7-1, 7β-[2-(5-Amino-1,2,4-thiadiazol-3-yl)-(Z)-2-fluoromethoxyiminoacetamido]-3-[(E)-3-[4R-hydroxy-1-(2-hydroxyethyl)-2S-hydroxymethyl-1-pyrrolidinio]-1-propen-1-yl]-3-cephem-4-carboxylate], for which the MIC is at most 0.025 mg/L in assay [1] (setting [4]); at most 0.025 mg/L in the assay on Kleb. pneumoniae EK-6 (setting [5]); 0.8 mg/L (≈ 1.33 µM) with Pseud. aeruginosa EP-01 (setting [2]); at most 0.025 mg/L in the assay on Escher. coli NIHJ (setting [3]); at most 0.025 mg/L with Ser. marcescens ES-75 (setting [6]); 0.2 mg/L (≈ 0.332 µM) in the assay with Staph. aureus 209-P (setting [7]).

As for `CC(C(N)=O)[N+]1(C/C=C/C2=C(C(=O)[O-])N3C(=O)[C@@H](NC(=O)/C(=N\OCF)c4nsc(N)n4)[C@H]3SC2)CCCC1` (single isomer, unassigned) [Example 13-2], the MIC in assay [1] (18 hours) is 0.05 mg/L (≈ 0.0858 µM); in the assay with Kleb. pneumoniae EK-6 it was at most 0.025 mg/L; against Pseud. aeruginosa EP-01 it was 1.56 mg/L (≈ 2.68 µM); in the assay on Escher. coli NIHJ, at most 0.025 mg/L; in the assay with Ser. marcescens ES-75 it was 0.05 mg/L (≈ 0.0858 µM); with Staph. aureus 209-P, 0.2 mg/L (≈ 0.343 µM).

As for `Nc1nc(/C(=N/OCF)C(=O)N[C@@H]2C(=O)N3C(C(=O)[O-])=C(/C=C/C[N+]4(CC(O)CO)CCCC4)CS[C@H]23)ns1` (single isomer, unassigned) [Example 23-1], the MIC in assay [1] (setting [4]) is at most 0.025 mg/L; in the assay on Kleb. pneumoniae EK-6 (setting [5]), at most 0.025 mg/L; in the assay with Pseud. aeruginosa EP-01 (setting [2]), 1.56 mg/L (≈ 2.66 µM); in the assay with Escher. coli NIHJ (setting [3]), at most 0.025 mg/L; with Ser. marcescens ES-75 (setting [6]), at most 0.025 mg/L; with Staph. aureus 209-P (setting [7]), 0.2 mg/L (≈ 0.342 µM).

On to `Nc1nc(/C(=N/OCF)C(=O)N[C@@H]2C(=O)N3C(C(=O)[O-])=C(/C=C/C[N+]4(CC(O)CO)CCCC4)CS[C@H]23)ns1` (single isomer, unassigned) [Example 23-2], for which the minimal inhibitory concentration (MIC) in assay [1] (18 hours) is 0.05 mg/L (≈ 0.0854 µM); in the assay on Kleb. pneumoniae EK-6, at most 0.025 mg/L; with Pseud. aeruginosa EP-01, 1.56 mg/L (≈ 2.66 µM); against Escher. coli NIHJ it was 0.05 mg/L (≈ 0.0854 µM); in the assay on Ser. marcescens ES-75, at most 0.025 mg/L; against Staph. aureus 209-P, 0.2 mg/L (≈ 0.342 µM).

In the case of `C[C@@H](CO)[N+](C)(C)C/C=C/C1=C(C(=O)[O-])N2C(=O)[C@@H](NC(=O)/C(=N\OCC#N)c3nsc(N)n3)[C@H]2SC1` [Example 148], the minimum inhibitory concentration (MIC) in assay [1] (setting [4]) came to 0.1 mg/L (≈ 0.182 µM); with Kleb. pneumoniae EK-6 (setting [5]), 0.05 mg/L (≈ 0.0908 µM); in the assay with Pseud. aeruginosa EP-01 (setting [2]), 1.56 mg/L (≈ 2.83 µM); in the assay with Ser. marcescens ES-75 (setting [6]) it was 0.05 mg/L (≈ 0.0908 µM); with Staph. aureus 209-P (setting [7]), 0.4 mg/L (≈ 0.726 µM).

What is called MIC is the smallest concentration in the dilution series that meets the test's criterion for growth inhibition.

The record behind these values is patent publication US4921850A, “3-propenylcephem derivative” (Eisai Co., Ltd., priority 1986, dated 1990).
